Key:
TUBB2C = assay: Microarray gene expression in brain, spleen and liver of Hsd:Athymic Nude-Foxn1nu mice (Example 7), housekeeping gene; assay type: in vivo, mouse
Experimental: (§1) Total RNA was extracted from samples using the RNeasy extraction kit (Qiagen). The quality and concentration of the RNA was analyzed using the Agilent 2100 bioanalyzer and NanoDrop™ ND-1000 (Thermo Scientific). Samples with RNA integrity number (RIN)<6.0 were discarded. Total RNA (0.5 μg) amplification and labelling with Cy3 or Cy5 was carried out using the Eberwein mRNA amplification procedure (Van Gelder et al, Proc Natl Acad Sci USA 1990, 87:1663-1667) employing the MessageAmp™ aRNA amplification kit from Ambion (Applied Biosystems) following the manufacturer's instructions with minor modifications. As hybridization controls, plant mRNAs were transcribed from a plasmid containing the Zea mays Xet (xyloglucan endo-transglycosylase) cDNA and from a plasmid containing the Zea mays Zmmyb42 cDNA, independently prepared Cy3 and Cy5 labelled aRNA from these two RNAs using the Eberwein mRNA amplification procedure (as disclosed in Cerdà et al, Gen Comp Endocrinol 2008, 156:470-481).
(§2) The Cy3- and Cy5-labelled cRNAs and spikes were combined and hybridized to the microarray described in Example 2.6 for 17 h at 60° C. using Agilent's gaskets G2534-60002, G2534A hybridization chambers and DNA Hybridization Oven G2545A, according to the manufacturer's instructions. More specifically, equal amounts of Cy3 and Cy5 labeled Xet aRNA as well as equal amounts of Cy3 and Cy5 labeled Zmmyb42 aRNA were spiked into each mixture hybridized to the array. Arrays were washed and raw data were obtained using Agilent's DNA Microarray Scanner G2505B and Feature Extraction software (v10.1). The raw fluorescence intensity data were processed using applicant's proprietary software, and consists in the following operations:
(§3) Data normalization was carried out by an improved version of the nonlinear Q-splines normalization method (Workman et al., Genome Biol 2002, 3(9):research0048.1-0048.16). Normalization results were presented graphically as MA plots, as first described by Dudoit et al (Dudoit et al, Statistica Sinica, 2002, 12:111-139). Each point corresponds to a probe of the DNA array. M values (vertical axis) are the log-differential expression ratios. A values (horizontal axis) are the log-intensities of the spots. M and A are calculated from the Cy5 and Cy3 intensity values as of each spot. The DNA Array data is normalized using an improved version of non-linear Q-Splines normalization described by Workman et al., Genome Biol 2002, 3(9):research0048.1-0048.16. This process is useful to correct the deviation of the M values from the statistical assumption that most of the spots have M=0 in MA plots. The method allows the adjustment of all M values to form a cloud centered at M=0 in all intensity ranges. The data used to calculate the normalization fitting curve is the totality of the raw measurement dataset, excluding the signals for the probes for the spiked-in plant RNA controls and negative controls. In order to be able to normalize properly the data among all the experiments, the probe-set must include an important group of genes that should have no change (M=0) in the experiment. The normalization function is then applied to all the data, including controls.
(§4) Normalized and log-transformed data were used to calculate log 2 (sample/control) and Fold Change (FC) values. No background subtraction was applied to the signal intensity values during data processing, permitting robust selection of differentially expressed genes with low expression levels at the cost of potential sub-estimation of change when intensity levels are close to the array background level.
(§5) Powered Compound 3, 4 or 5 was dissolved in a 20% solution of 2-hydroxypropyl-R-cyclodextrin in water at the appropriate concentrations, vortexed and placed in an ultrasonic bath for 5 minutes.
(§6) Hsd:Athymic Nude-Foxn1nu mice were maintained in air- and temperature-controlled cages with regular supply of water and food. A maximum of 6 mice/cage were raised. […]

TUBB3 = assay: as above; assay type: in vivo, mouse
Experimental: as §1, §2, §3, §4, §5, §6

NC(=O)CN[C@H]1C[C@@H]1c1ccc(OCc2ccccc2)cc1 (racemic) [Compound 3, 2-(((trans)-2-(4-(benzyloxy)phenyl)cyclopropyl)amino)acetamide]
Hybridization signal sample_Cy5 (TUBB2C; BRAIN, 5 mg/kg): 5903.12
log2 (sample/control) (TUBB2C; BRAIN, 5 mg/kg vs VEH): 0.09115
Hybridization signal sample_Cy5 (TUBB2C; BRAIN, 10 mg/kg): 6228.65
log2 (sample/control) (TUBB2C; BRAIN, 10 mg/kg vs VEH): −0.008955
Hybridization signal sample_Cy5 (TUBB2C; BRAIN, 20 mg/kg): 6935.27
log2 (sample/control) (TUBB2C; BRAIN, 20 mg/kg vs VEH): 0.07289
Hybridization signal sample_Cy5 (TUBB2C; BRAIN, 40 mg/kg): 7405.34
log2 (sample/control) (TUBB2C; BRAIN, 40 mg/kg vs VEH): 0.06328
Hybridization signal sample_Cy5 (TUBB2C; LIVER, 5 mg/kg): 2676.03
log2 (sample/control) (TUBB2C; LIVER, 5 mg/kg vs VEH): −0.1194
Hybridization signal sample_Cy5 (TUBB2C; LIVER, 10 mg/kg): 2301.43
log2 (sample/control) (TUBB2C; LIVER, 10 mg/kg vs VEH): −0.2687
Hybridization signal sample_Cy5 (TUBB2C; LIVER, 20 mg/kg): 2059.18
log2 (sample/control) (TUBB2C; LIVER, 20 mg/kg vs VEH): −0.578
Hybridization signal sample_Cy5 (TUBB2C; LIVER, 40 mg/kg): 1551.2
log2 (sample/control) (TUBB2C; LIVER, 40 mg/kg vs VEH): −0.9728
Hybridization signal sample_Cy5 (TUBB2C; SPLEEN, 5 mg/kg): 6245.92
log2 (sample/control) (TUBB2C; SPLEEN, 5 mg/kg vs VEH): −0.05272
Hybridization signal sample_Cy5 (TUBB2C; SPLEEN, 10 mg/kg): 4019.89
log2 (sample/control) (TUBB2C; SPLEEN, 10 mg/kg vs VEH): −0.4863
Hybridization signal sample_Cy5 (TUBB2C; SPLEEN, 20 mg/kg): 4597.76
log2 (sample/control) (TUBB2C; SPLEEN, 20 mg/kg vs VEH): −0.4097
Hybridization signal sample_Cy5 (TUBB2C; SPLEEN, 40 mg/kg): 8986.8
log2 (sample/control) (TUBB2C; SPLEEN, 40 mg/kg vs VEH): −0.9476
Hybridization signal sample_Cy5 (TUBB3; BRAIN, TUBB3, 5 mg/kg): 2574.04
log2 (sample/control) (TUBB3; BRAIN, TUBB3, 5 mg/kg vs VEH): −0.223
Hybridization signal sample_Cy5 (TUBB3; BRAIN, TUBB3, 10 mg/kg): 3248.86
log2 (sample/control) (TUBB3; BRAIN, TUBB3, 10 mg/kg vs VEH): −0.06283
Hybridization signal sample_Cy5 (TUBB3; BRAIN, TUBB3, 20 mg/kg): 3078.53
log2 (sample/control) (TUBB3; BRAIN, TUBB3, 20 mg/kg vs VEH): −0.0238
Hybridization signal sample_Cy5 (TUBB3; BRAIN, TUBB3, 40 mg/kg): 3573.76
log2 (sample/control) (TUBB3; BRAIN, TUBB3, 40 mg/kg vs VEH): 0.02054
Hybridization signal sample_Cy5 (TUBB3; LIVER, TUBB3, 5 mg/kg): 64.7691
log2 (sample/control) (TUBB3; LIVER, TUBB3, 5 mg/kg vs VEH): −0.09742
Hybridization signal sample_Cy5 (TUBB3; LIVER, TUBB3, 10 mg/kg): 68.7068
log2 (sample/control) (TUBB3; LIVER, TUBB3, 10 mg/kg vs VEH): 0.02345
Hybridization signal sample_Cy5 (TUBB3; LIVER, TUBB3, 20 mg/kg): 48.4567
log2 (sample/control) (TUBB3; LIVER, TUBB3, 20 mg/kg vs VEH): −0.04225
Hybridization signal sample_Cy5 (TUBB3; LIVER, TUBB3, 40 mg/kg): 46.9101
log2 (sample/control) (TUBB3; LIVER, TUBB3, 40 mg/kg vs VEH): 0.01927
Hybridization signal sample_Cy5 (TUBB3; SPLEEN, TUBB3, 5 mg/kg): 58.6845
log2 (sample/control) (TUBB3; SPLEEN, TUBB3, 5 mg/kg vs VEH): −0.02944
Hybridization signal sample_Cy5 (TUBB3; SPLEEN, TUBB3, 10 mg/kg): 52.6685
log2 (sample/control) (TUBB3; SPLEEN, TUBB3, 10 mg/kg vs VEH): −0.02259
Hybridization signal sample_Cy5 (TUBB3; SPLEEN, TUBB3, 20 mg/kg): 62.5361
log2 (sample/control) (TUBB3; SPLEEN, TUBB3, 20 mg/kg vs VEH): −0.1183
Hybridization signal sample_Cy5 (TUBB3; SPLEEN, TUBB3, 40 mg/kg): 88.3418
log2 (sample/control) (TUBB3; SPLEEN, TUBB3, 40 mg/kg vs VEH): 0.169

From patent US20180284095A1, “BIOMARKERS ASSOCIATED WITH LSD1 INHIBITORS AND USES THEREOF” (Oryzon Genomics, S.A., priority 2015, published 2018)
